The results in this text go back to BindingDB's records for doi:10.1021/jm021073r (University of Bath, 2003).

In the test the target is Kappa-type opioid receptor (Homo sapiens, UniProt P41145). As to the kind of experiment: Stimulation of U-69,593 binding at human recombinant Opioid receptor kappa 1 transfected into CHO cells.

Each structure is given as a SMILES string.

Broadly, the EC50 is the concentration that produces a half-maximal response.

Chain of Kappa-type opioid receptor (P41145 whole entry): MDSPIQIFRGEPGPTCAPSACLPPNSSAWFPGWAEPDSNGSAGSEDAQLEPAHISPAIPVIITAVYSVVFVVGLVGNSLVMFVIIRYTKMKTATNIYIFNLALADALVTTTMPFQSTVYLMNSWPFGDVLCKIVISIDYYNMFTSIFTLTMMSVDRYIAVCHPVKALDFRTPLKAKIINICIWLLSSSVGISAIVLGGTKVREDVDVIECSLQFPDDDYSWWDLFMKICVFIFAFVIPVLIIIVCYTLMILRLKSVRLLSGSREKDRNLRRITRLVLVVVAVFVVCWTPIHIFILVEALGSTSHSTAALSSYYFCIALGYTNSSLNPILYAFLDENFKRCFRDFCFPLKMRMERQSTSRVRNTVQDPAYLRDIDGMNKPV

On to `CN1CC[C@]23c4c5ccc(O)c4O[C@H]2c2[nH]c4ccccc4c2C[C@@]3(NC(=O)CCc2ccccc2)C1C5`, for which the EC50 is 9.5 nM.
Take `CCN[C@@]12Cc3c([nH]c4ccccc34)[C@@H]3Oc4c(O)ccc5c4[C@@]31CCN(C)C2C5`: the EC50 turned out to be 98 nM.
On to `CN1CC[C@]23c4c5ccc(O)c4O[C@H]2c2[nH]c4ccccc4c2C[C@@]3(N)C1C5`, for which the EC50 came out at 87 nM.
The value for `CCCCCCC(=O)N[C@@]12Cc3c([nH]c4ccccc34)[C@@H]3Oc4c(O)ccc5c4[C@@]31CCN(C)C2C5` was 57 nM.
